Key:
[1] = target: T1, 5-hydroxytryptamine receptor 2C (Homo sapiens, UniProt P28335); experiment: Displacement of [3H]mesulergine from 5HT2C receptor
T1 sequence (P28335 whole entry): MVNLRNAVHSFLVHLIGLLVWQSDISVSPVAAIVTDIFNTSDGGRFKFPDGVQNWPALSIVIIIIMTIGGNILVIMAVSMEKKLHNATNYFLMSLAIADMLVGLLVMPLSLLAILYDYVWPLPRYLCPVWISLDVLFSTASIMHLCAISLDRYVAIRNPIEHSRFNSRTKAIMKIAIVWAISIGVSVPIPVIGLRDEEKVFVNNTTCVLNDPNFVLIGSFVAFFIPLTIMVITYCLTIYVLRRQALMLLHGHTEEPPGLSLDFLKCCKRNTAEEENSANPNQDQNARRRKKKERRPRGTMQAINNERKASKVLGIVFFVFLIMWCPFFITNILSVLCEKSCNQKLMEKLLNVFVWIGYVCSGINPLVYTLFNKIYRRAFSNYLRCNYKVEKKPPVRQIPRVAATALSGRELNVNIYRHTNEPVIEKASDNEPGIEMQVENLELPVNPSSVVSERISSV

[2] = target: Melanin-concentrating hormone receptor 1 (Homo sapiens, UniProt Q99705); experiment: Binding affinity to MCHR1 by radioligand binding assay
Sequence of Melanin-concentrating hormone receptor 1 (Q99705 whole entry): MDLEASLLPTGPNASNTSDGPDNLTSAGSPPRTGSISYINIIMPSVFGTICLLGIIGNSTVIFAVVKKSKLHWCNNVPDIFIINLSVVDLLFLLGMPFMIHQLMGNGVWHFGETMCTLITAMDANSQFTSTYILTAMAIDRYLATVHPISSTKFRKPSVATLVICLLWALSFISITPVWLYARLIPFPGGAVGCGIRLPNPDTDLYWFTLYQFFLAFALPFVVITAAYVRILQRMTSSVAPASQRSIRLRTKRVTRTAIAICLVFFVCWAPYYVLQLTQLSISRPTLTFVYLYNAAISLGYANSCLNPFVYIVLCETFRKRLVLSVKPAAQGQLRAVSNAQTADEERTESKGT

| Structure (SMILES) | IC50 [1] | Ki [2] |
| --- | --- | --- |
| O=C(NCc1cccc2cc(CN3CCC(O)CC3)cnc12)c1ccc(-c2ccc(F)cc2)cc1 | 2810 nM | 195 nM |
| CN(C)Cc1cnc2c(Cn3cnc4cc(-c5ccc(Cl)cc5)sc4c3=O)cccc2c1 | 1310 nM | 197 nM |
| CS(=O)(=O)C1CCN(Cc2cnc3c(CNC(=O)c4ccc(-c5ccc(F)cc5)cc4)cccc3c2)CC1 | > 100000 nM | 310 nM |
| CCN(CC)Cc1cnc2c(Cn3cnc4cc(-c5ccc(Cl)cc5)sc4c3=O)cccc2c1 | 25200 nM | 126 nM |
| O=C(NCc1cccc2cc(CN3CCOCC3)cnc12)c1ccc(-c2ccc(F)cc2)nc1 | > 100000 nM | 20100 nM |
| CN(Cc1cccc2cc(CN3CCCCC3)cnc12)C(=O)c1ccc(-c2ccc(F)cc2)cc1 | 4190 nM | 31 nM |
| CN(CC(=O)N(C)C)Cc1cnc2c(Cn3cnc4cc(-c5ccc(Cl)cc5)sc4c3=O)cccc2c1 | > 100000 nM | 136 nM |
| O=c1c2sc(-c3ccc(Cl)cc3)cc2ncn1Cc1cccc2cc(CN3CCCC3)cnc12 | > 100000 nM | 91 nM |
| CS(=O)(=O)N1CCN(Cc2cnc3c(Cn4cnc5cc(-c6ccc(Cl)cc6)sc5c4=O)cccc3c2)CC1 | > 100000 nM | 773 nM |
| O=c1c2sc(-c3ccc(Cl)cc3)cc2ncn1Cc1cccc2cc(CN3CCC(O)CC3)cnc12 | > 100000 nM | 51 nM |
| CN1CCN(Cc2cnc3c(Cn4cnc5cc(-c6ccc(Cl)cc6)sc5c4=O)cccc3c2)CC1 | > 100000 nM | 110 nM |

Next, values leading:

| IC50 [1] | Ki [2] | Structure (SMILES) |
| --- | --- | --- |
| 14100 nM | 310 nM | CCN(CC)Cc1cnc2c(CNC(=O)c3ccc(-c4ccc(F)cc4)nc3)cccc2c1 |
| 4160 nM | 102 nM | CCN(CC)Cc1cnc2c(CNC(=O)c3ccc(-c4ccc(F)cc4)cc3)cccc2c1 |
| 7470 nM | 1410 nM | O=C(NCc1cccc2cc(CN3CCOCC3)cnc12)c1ccc(-c2ccc(F)cc2)cc1 |
| 3590 nM | 142 nM | O=C(NCc1cccc2cc(CN3CC[C@H](O)C3)cnc12)c1ccc(-c2ccc(F)cc2)cc1 |
| 14600 nM | 803 nM | O=C(NCc1cccc2cc(CN3CCC(O)CC3)cnc12)c1ccc(-c2ccc(F)cc2)nc1 |
| 10300 nM | 414 nM | CN(C)Cc1cnc2c(CNC(=O)c3ccc(-c4ccc(F)cc4)nc3)cccc2c1 |
| 20200 nM | 3540 nM | CN1CCN(Cc2cnc3c(CNC(=O)c4ccc(-c5ccc(F)cc5)nc4)cccc3c2)CC1 |
| 16500 nM | 1150 nM | O=C(NCc1cccc2cc(CN3CC[C@H](O)C3)cnc12)c1ccc(-c2ccc(F)cc2)nc1 |
